From PubChem BioAssay AID179 (DTP/NCI, 2004)
Active and inactive are the calls of the source.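 How the source made its calls: active means compounds giving half or more protection of infected cells from virus-caused growth loss, again on retest; inactive means the rest.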 Where a SMILES comes first, the peptide text is derived from it. [ ]: non-standard residue; d: D form. The star is where a group is joined. ξ: configuration not given here. X19 = O=C(OCc1ccccc1)[C@H]1CCC[C@H]1N*; ξW = NC(Cc1c[nH]c2ccccc12)C(=O)O; ξF = NC(Cc1ccccc1)C(=O)O; Cbz = O=C(OCc1ccccc1)*; Boc = CC(C)(C)OC(=O)*; ξK = NCCCCC(N)C(=O)O; ξT = CC(O)C(N)C(=O)O; tBu = CC(C)(C)*

Test system: CEM cells HIV-1 protection, formazan growth assay
Assay: NCI AIDS Antiviral Assay
Details: for IC50: measured here: growth of uninfected CEM cells
How it was run: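 CEM (human) cells, HIV-1 infected vs uninfected, 5-point dosing, formazan growth read-out. Retest threshold 50% protection.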

SMILES | EC50 [µM] | IC50 [µM] | outcome
Oc1c(OCc2nnc(CCCCCCCCc3nnc(COc4ccc5ccccc5c4O)n3Nc3ccccc3)n2Nc2ccccc2)ccc2ccccc12 | > 2 | > 2 | –
C=C1C(=O)OC(CCCCC)C1C(=O)O (stereo unspecified) | – | – | inactive
CCOC(=O)/C(=C/c1cccc(C#N)c1)N(CC)CC | > 661 | 347 | –
[O-]/[N+]1=[N+](\[O-])c2ccccc2COCc2ccccc21 | – | – | inactive
COC(=O)C(Cc1nc2ccccc2[nH]c1=O)C(=O)C(=O)Nc1ccc([N+](=O)[O-])cc1[N+](=O)[O-] (stereo unspecified) | > 55 | 25.7 | –
COC1=CC(=O)c2c(O)c(CO)cc(O)c2C1=O | – | – | inactive
O=C(OC1(c2ccccc2)OC(=O)c2ccccc21)c1ccccc1C(=O)c1ccccc1 (stereo unspecified) | – | – | inactive
CCC(=O)N1C(=O)C(C)C23c4cc(OC)c(OC)cc4C(=O)N2CCCN13 (stereo unspecified) | > 240 | > 240 | –
CC(C)(C)C1(c2ccc(C3(c4ccccc4)Oc4ccccc4S3)[nH]2)Oc2ccccc2S1 (stereo unspecified) | – | – | inactive
COc1c(-c2ccccc2)nc2ccc(Oc3ccccc3)nn12 | > 56.2 | > 56.2 | –
Cc1ccc(C)c(N=Nc2c(S(=O)(=O)O)cc3cc(NC(=O)Nc4ccc5c(O)c(N=Nc6ccc7cc(S(=O)(=O)O)ccc7c6)c(S(=O)(=O)O)cc5c4)ccc3c2O)c1 | 16.2 | > 100 | –
O=C(O)/C=C/c1ccc(O)cc1 | > 200 | > 200 | –
O=c1[nH]c(=O)n(C2CC(O)C(CO)O2)cc1OCC1CCCCC1 (stereo unspecified) | > 200 | > 200 | –
Cc1cc(=O)[nH]c(=S)n1-c1nc2ccccc2o1 | > 115 | > 115 | –
CCCCCCCCCCCCCCCCCCNC(=S)/N=C/c1c(O)c2ccccc2[nH]c1=O | > 200 | 44.7 | –
Nc1nc(Cl)cc(N=Nc2ccccc2)n1 | > 200 | 11.5 | –
C[CH2][Sn]([CH2]C)([O]C(=O)c1cc(OC)c(OC)c(OC)c1)[O][Sn]([CH2]C)([CH2]C)[O]C(=O)c1cc(OC)c(OC)c(OC)c1 | > 6.61 | > 6.61 | –
C=CCCCCOC1C=CC(O)C(CO)O1 (stereo unspecified) | > 200 | > 200 | –
Cc1nc2ccccc2c(C)[n+]1[O-] | > 200 | > 200 | –
CC1=NN2C(=O)C(C)SC2=NC(C)(C)C1 (stereo unspecified) | > 1120 | > 1120 | –
O=C(NNc1nc2ccccc2n2cccc12)Nc1ccc(Br)cn1 | > 200 | 46.8 | –
O=C1CCC2(CC1)Cc1ccccc1C2O (stereo unspecified) | > 200 | > 200 | –

SMILES | EC50 [µM] | IC50 [µM] | outcome
C(=N\NC1=NCCCCN1)/c1ccc2ccccc2c1 | > 200 | 33.1 | –
N#CCCCCCOCCOCCOCCOCCOCCCCCC#N | – | – | inactive
O=C1C[C@@H]2[C@@H](C=CC23CC3)N1O | > 1510 | > 1510 | –
COC(=O)CCn1cnc2c(SC)ncnc21 | > 200 | > 200 | –
COc1cc2c(c(Cl)c1OC)CCN(C)CC2c1ccccc1 (stereo unspecified) | > 200 | 70.8 | –
COc1ccccc1NC(=O)CC(=O)N1N=C(N(c2ccccc2)c2ccccc2)CC1c1ccccc1 (stereo unspecified) | – | > 100 | inactive
COc1ccc(N=Nc2ccc3oc(=O)c(C(=O)Nc4ccccc4)cc3c2)cc1 | > 200 | 33.1 | –
CC1(C)COC(c2cccc3c2C(=O)c2cccc(Cl)c2-3)=N1 | > 83.2 | 79.4 | –
CC(C)C(=O)/C=C/c1ccc(Cl)cc1Cl | – | – | inactive
O=c1c2ccccc2oc2c1ccc1ncccc12 | > 200 | 6.61 | –
NC1=NC2=C(CCCC2)C(c2cccs2)S1 (stereo unspecified) | > 145 | > 145 | –
O=C(O)C1=CN=C(C(=O)O)NN1 | > 1150 | 617 | –
Cc1ccc2c(c1)P(=O)(O)c1cc(C)ccc1O2 | > 200 | > 200 | –
c1ccc(P(=Nc2ccccc2N=P(c2ccccc2)(c2ccccc2)c2ccccc2)(c2ccccc2)c2ccccc2)cc1 | – | – | inactive
O=S(=O)(O)C(O)/C=C/c1ccccc1 (stereo unspecified) | – | – | inactive
O=C(Nc1ccc(Cl)cc1)NC(O)C(Cl)(Cl)Cl (stereo unspecified) | > 200 | 148 | –
Cc1nc(N)sc1C(=O)/C=C/c1ccc(/C=C/C(=O)c2sc(NC(=O)CCCCCCCCC(=O)Nc3nc(C)c(C(=O)/C=C/c4ccc(/C=C/C(=O)c5sc(N)nc5C)cc4)s3)nc2C)cc1 | > 251 | 162 | –
CCOC(=O)c1c(C(F)(F)F)oc2c1ccc1nc3nonc3nc12 | > 53.7 | 11 | –
O=C(CC1(O)C(=O)Nc2c(Cl)cc(Cl)cc21)c1ccc(Br)cc1 (stereo unspecified) | > 26.9 | 15.8 | –
C=CCOc1ccc(C2C(C(=O)OC)C(=O)CC(O)(c3ccccc3)C2C(=O)OC)cc1OC (stereo unspecified) | > 100 | > 100 | –
CCOC(=O)c1nc2cc(F)c(F)cc2nc1NCc1cc(OC)c(OC)c(OC)c1 | > 100 | > 100 | –
CC/C=C/c1cc2c(c3[nH]ccc13)[C@@H](C)CC2C (stereo partly specified) (tested in a mixture with another compound) | – | – | inactive

SMILES | EC50 [µM] | IC50 [µM] | outcome
CCOc1cc2c(cc1O)C(O)C[C@@H]1[C@@H]2CC[C@]2(C)[C@@H](O)CC[C@@H]12 (stereo partly specified) | > 200 | 0.0776 | –
O/C(=C\c1nc2ccccc2nc1NC12CC3CC(CC(C3)C1)C2)c1ccc(Br)cc1 | > 200 | > 200 | –
Cn1c(=N)c(C#N)c2n(c1=S)CCCCCCC2 | > 200 | 97.7 | –
CCCCS(=N)(=O)CCC(N)P(=O)(O)O (stereo unspecified) | > 200 | > 200 | –
Nc1nc(N)c2ncn(C3OC(CO)CC3F)c2n1 (stereo unspecified) | 34.7 | 93.3 | –
O=C(CC(CC(=O)Oc1c(Br)cc(Br)cc1C(=O)O)C(=O)Oc1c(Br)cc(Br)cc1C(=O)O)Oc1c(Br)cc(Br)cc1C(=O)O | > 245 | 85.1 | –
O=S(=O)(O)C(F)(F)C(F)(F)C(F)(F)C(F)(F)C(F)(F)C(F)(F)C(F)(F)C(F)(F)F | > 200 | > 200 | –
COc1ccc(C(=O)C(c2ccc(OC)cc2)C2(O)C(=O)Nc3ccc([N+](=O)[O-])cc32)cc1 (stereo unspecified) | > 79.4 | > 79.4 | –
CCCSS/C(CCO)=C(\C)N(C=O)Cc1cnc(C)nc1N | > 200 | 10.5 | –
OC1(c2ccccc2)N=C(c2ccccc2)c2ccccc2-n2cccc21 (stereo unspecified) | > 200 | > 200 | –
C[C@@H]1C[C@@H](O)[C@]2(O)O[C@@H]3C[C@@]4(C=O)[C@@H](CC[C@@H]5[C@@H]4CC[C@]4(C)[C@@H](C6=CC(=O)OC6)CC[C@]54O)C[C@H]3O[C@@H]2O1 | > 468 | 1.82 | –
FC(F)(F)P1C2C=CC(CC2)C1(F)F (stereo unspecified) | > 251 | > 251 | –
Nc1ccc(C(c2ccccc2)(c2ccccc2)c2ccccc2)cc1 | – | – | inactive
C[n+]1c2ccccc2c(CNC(CS)C(=O)O)c2ccccc21 (stereo unspecified) | – | – | inactive
O=C(NCCc1c[nH]c2ccccc12)C(F)(F)F | > 200 | > 200 | –
CC(OC(C)(C)C)C(NC(=O)C(CCCCNC(=O)OC(C)(C)C)NC(=O)C(Cc1c[nH]c2ccccc12)NC(=O)C(Cc1ccccc1)NC(=O)OCc1ccccc1)C(=O)NC(Cc1ccccc1)C(=O)N[C@@H]1CCC[C@@H]1C(=O)OCc1ccccc1 (stereo partly specified) (Cbz-[ξF][ξW][ξK](Boc)[ξT](tBu)[ξF]-X19) | – | – | inactive
NNC(=O)CNC(=O)c1ccc(Cl)cc1Cl | > 27.5 | > 27.5 | –
O=C(OC1CCCCC1)c1cc(NC(=S)c2ccccc2F)ccc1Cl | 0.0363 | 18.2 | –
COC(=O)c1c(N)n[nH]c1N | – | – | inactive
NC(=Nc1ccc(O)cc1)S(=O)(=O)O | 63.1 | 97.7 | –
O=C1OC(C2OC(=O)c3cc(O)c(O)c(O)c3-c3c(O)c(O)c4oc(=O)c5c(c(O)c(O)c6oc(=O)c3c4c65)-c3c(cc(O)c(O)c3O)C(=O)OCC2O)C2OC(=O)c3c(c(O)c(O)c(O)c3C2O)-c2c1cc(O)c(O)c2O (stereo unspecified) | 1.62 | 12 | –
CC(=O)OC1=C(C)S(=O)(=O)c2ccccc21 | > 200 | > 200 | –

SMILES | EC50 [µM] | IC50 [µM] | outcome
COc1ccc(C(=O)Cn2c(C(C)=O)nc3ccccc32)cc1 | > 200 | 2.45 | –
Cc1ccc(S(=O)(=O)N2CCCC2C(=O)NNC(N)=S)cc1 (stereo unspecified) | > 200 | 117 | –
CC(C)(Oc1ccc(/C=C/C(=O)c2ccccc2)cc1)C(=O)Nc1c(Cl)cccc1Cl | > 8.32 | > 8.32 | –
Oc1ccc(Cn2c(-c3ccc(O)cc3)nc3ccccc32)cc1 | > 794 | > 794 | –
Nc1nn2cc3c(nc2c1N=Nc1ccc(Cl)cc1)CCC3 | > 151 | > 100 | –
O=C(O)/C=C/c1ccc2c(c1)CC1(Cc3ccccc3C1)C2 | > 200 | 49 | –
[N-]=[N+]=Nc1cc(=O)n2c3c(cccc13)CCC2 | – | – | inactive
O=c1[nH]cnc2c1ncn2C1CCC(CO)O1 (stereo unspecified) | 6.03 | 50.1 | –
S=c1n(-c2ccc(Cl)cc2)c2nc3ccccc3nc(/c2=N\Nc2ccc(Br)cc2)n1-c1ccccn1 | > 32.4 | 30.9 | –
[O-]/[N+](=C\c1ccccc1)[C@H](COCc1ccccc1)c1ccccc1 | > 77.6 | > 77.6 | –
C[N+](C)(C)Cc1c(CC#N)[nH]c2ccccc12 | > 123 | 66.1 | –
CCCCCCC(=O)C(O)C(O)C(=O)CCCCCCCC(=O)O (stereo unspecified) | > 200 | 97.7 | –
CCOC(=O)c1c(NC(=O)CCl)ssc1=S | > 200 | 50.1 | –
CCOC(=O)C(CO)c1nc2c([nH]c1=O)c(=O)n(C)c(=O)n2C (stereo unspecified) | > 200 | > 200 | –
CCOC(=O)c1[nH]n(-c2ccccc2)c(=O)c1/C=N/C(=S)Nc1ccccc1OC | > 200 | 93.3 | –
O=c1c2cc3c(cc2c2cccc4c2n1CCC4)OCO3 | – | – | inactive
CC(C)CC1C(=O)OC(C)(C)OC1=O | > 200 | > 200 | –
Nc1cc(=O)[nH][nH]1 | > 200 | > 200 | –
Fc1nc(F)nc(-c2c3ccccc3c3n2CCS3)n1 | > 25.1 | > 25.1 | –
CCOC(=O)c1[nH]n(-c2ccccc2)c(=O)c1/C=N/C(=S)NCCc1ccc(OC)c(OC)c1 | > 200 | 51.3 | –
